The values that follow come from PubChem BioAssay AID1508591.

For orientation: half-life means how long it takes for the measured level to halve.

For this series the following is noted: rat; liver microsomes; pH 7.4; 15.0 min; 1.0 µM. Background: Liver microsomes are vesicles of endoplasmic reticulum, rich in cytochrome P450 enzymes.

As to `COc1ccc(-c2ccc3ncc(Nc4cccnc4OC)n3n2)cn1`, the half-life was determined as 10.8 min. Regarding `Fc1ccccc1CNCc1ccc(-c2ccnc3[nH]ccc23)cc1`, the half-life came to 1.47 min. Turning to `O=C(NCCCCc1ccccc1)C1CCN(c2nc(-c3ccc(Br)cc3)cs2)CC1`, the half-life was found to be 4.1 min.

With `NC(=O)Nc1cc(-c2ccc(CN3CCOCC3)cc2)sc1C(N)=O`, the half-life is more than 30 min. With `Cc1cc2ccccc2n1CC(=O)NC1CCCCC1`, the half-life came to 2.8 min. On to `Cc1csc2nc(-c3cccc(NC(=O)c4ccccc4Cl)c3)cn12`, for which the half-life stood at 0.9 min. In turn, `CCOc1ccc(C2C(C(=O)Nc3ccccc3OC)=C(C)Nc3c(C(=O)Nc4cccc(C)c4)cnn32)cc1` (stereo not given) yielded a half-life of 4.18 min. As to `CC1(C)C(=O)NC2=C1C(=O)C(=O)c1ccccc12`, the half-life was more than 30 min. Next, `COc1ccc(-c2cc3nccn3c(Nc3ncccc3C(N)=O)n2)cc1OC`: more than 30 min. In the case of `CC(C)(C)c1ccc(-c2csc(N3CCC(C(N)=O)CC3)n2)cc1`, the half-life was 13.9 min. To `Cc1c(Cl)cccc1-n1ncc(C(=O)Nc2ccc(Br)cc2F)c1C1CCNCC1` belongs 9.8 min; to `O=C1CCCC2=C1C(c1[nH]ncc1Cl)N=C(Nc1nc3ccccc3o1)N2` (stereo not given), 13.5 min; to `Cc1ccc(S(=O)(=O)c2cnc(SC(C)C(=O)Nc3ccccc3)[nH]c2=O)cc1` (stereo not given), 10.7 min.

`C[C@@H]1Cc2c([nH]c3cc(Cl)c(F)cc23)[C@]2(N1)C(=O)Nc1ccc(Cl)cc12` came in with a half-life of more than 30 min.

As for `COc1ccc(C)cc1-n1nnnc1Sc1ncnc2scc(-c3ccc(Br)cc3)c12`, the half-life was 2.1 min. `CCC(Sc1nc2ccccc2c2nc(CCc3c(C)n[nH]c3C)nn12)C(=O)Nc1ccc(F)cc1` (stereo not given) returned a half-life of 4.01 min. In the case of `CCOc1ccccc1C(=O)NC1CCN(c2cc(C)cc(C)c2)C1=O` (stereo not given), the half-life amounted to 8.98 min.

`CC(C)Oc1ccccc1C(=O)Nc1nc(-c2ccccc2)cs1` displayed a half-life of 9 min. With `NC(=O)C1CCN(c2ncc(-c3ccc4c(c3)OCO4)s2)CC1`, the half-life is 7.65 min. For the molecule `COc1ccc(-c2cnc(N3CCC(C(N)=O)CC3)s2)cc1OC`, the half-life is more than 30 min.

`Cc1ccc2nc(-c3ccccn3)c(Nc3ccccc3C)n2c1` had a half-life of 12.2 min. Turning to `CC(C)CNc1ncnc2onc(-c3ccc(Cl)cc3)c12`, the half-life came out at 12 min. For the molecule `Cc1ccc(S(=O)(=O)N(C)c2ccccc2C(=O)Nc2nc(-c3ccccc3)cs2)cc1`, the half-life came out at 1.7 min. The molecule `O=C(Nc1ncc(Cc2cccc(C(F)(F)F)c2)s1)c1ccc(-c2cccc([N+](=O)[O-])c2)o1` yielded a half-life of more than 30 min. In the case of `O=C(Nc1nc(-c2ccc(Cl)s2)cs1)c1cccs1`, the half-life came to 19.5 min.

In the case of `Cc1ccc(S(=O)(=O)N2CCCc3cc(NS(=O)(=O)c4ccccc4)ccc32)cc1`, the half-life amounted to 1 min. Next, `CC(C)(C)c1cc(NC(=O)Nc2ccc(-c3cn4c(n3)sc3cc(OCCN5CCOCC5)ccc34)cc2)no1`: more than 30 min.

Molecule `CC1Cc2cc(S(=O)(=O)NCc3ccc(N(C)C)cc3)ccc2N1C(=O)C1CCC1` (stereo not given) returned a half-life of 1.73 min.

For `O=C(Nc1cncc(Cc2ccccc2)c1)c1ccc(-c2cccc([N+](=O)[O-])c2)o1`, the half-life was determined as 2.4 min. Turning to `COc1ccc(-c2cc(C(F)(F)F)nc(SCCC(=O)Nc3cc(C)ccc3O)n2)cc1`, the half-life turned out to be 14.9 min.

Take `Cc1ccc(S(=O)(=O)NCc2ccccc2)cc1`: the half-life is 1 min. `CC(C)(C)C1CCc2[nH]c3ccccc3c(=O)c2C1` (stereo not given) returned a half-life of 18.7 min.

For `NC(=O)C1CCN(c2nc(-c3ccccc3F)cs2)CC1`, the half-life came out at 3.04 min. `CNc1oc(-c2cccc3ccccc23)nc1C(=O)OC` returned a half-life of more than 30 min.

The molecule `CC(=O)c1c(C)[nH]c(C(=O)Nc2cccc([S+](=O)([O-])Nc3ccccn3)c2)c1C` gave a half-life of more than 30 min.

`N#Cc1ccc(-c2csc(N3CCC(C(N)=O)CC3)n2)cc1` had a half-life of 16.2 min. To `c1cc(OCCN2CCCCC2)cc(-c2n[nH]c3ccc(-c4ncn[nH]4)cc23)c1` belongs more than 30 min; to `COc1cc2nccc(Oc3ccc(NC(=O)Nc4cc(C)on4)c(Cl)c3)c2cc1OC`, more than 30 min. Next, `Cc1nc2nc(NC(=O)c3ccc(C(C)(C)C)cc3)[nH]n2c(=O)c1Cl`: 21 min; `CCN(CC)CCOc1ccc2c(=O)c3ccc(Cl)cc3n(CCN(CC)CC)c2c1`: 7.9 min. As to `O=C(Nc1ccc([S+](=O)([O-])Nc2nccs2)cc1)c1ccn[nH]1`, the half-life is more than 30 min. Next, `Cc1ccc(S(=O)(=O)Nc2cnccc2C(=O)Nc2nc(-c3nc4ccccc4s3)cs2)cc1`: 24 min; `O=C(Nc1nc(-c2ccccc2)cs1)c1ccncc1NS(=O)(=O)c1ccc2ccccc2c1`: 8.4 min. Consider `CCC(CC)c1cc([C@H]2CN3CC[C@H]2C[C@@H]3CNC(=O)COc2ccccc2)nc(-c2ccncc2)n1`, for which the half-life came out at 2.38 min. As to `COc1ccc(-c2ccc3nc(-c4ccc(SC)cc4)oc3c2)c(OC)c1OC`, the half-life came out at 1.8 min.

`O=S(=O)(Nc1nccs1)c1ccc(NCc2cccc(Cl)c2Cl)cc1` registered a half-life of 25 min. For `CCN1C(=O)c2ccccc2[S@](=O)c2ccc(C(=O)N[C@H](C)c3ccc(Br)cc3)cc21`, the half-life was determined as 7.7 min. Consider `CCCCCCCCc1ccc(CCC(N)(CO)CO)cc1`, for which the half-life is more than 30 min.

Turning to `O=C(Nc1cccc(C(F)(F)F)c1)c1cc2nc(-c3ccccc3)cc(C(F)(F)F)n2n1`, the half-life is more than 30 min.

Turning to `O=c1c(-c2ccc(O)cc2)coc2cc(O)cc(O)c12`, the half-life is more than 30 min. `NS(=O)(=O)c1ccc(Cc2c(-c3cccc(-c4ccccc4)c3)nn(-c3nc(C(=O)O)cs3)c2CC2CC2)cc1` yielded a half-life of more than 30 min. The molecule `COc1ccc(CN(C2CCCCC2C)S(=O)(=O)c2ccc(S(=O)(=O)N(C)C)cc2)cc1OC` (stereo not given) showed a half-life of 1.6 min. For the molecule `COc1ccc(C2Nc3ccccc3C(=O)N2Cc2ccco2)cc1` (stereo not given), the half-life was 1.6 min. As to `COC(=O)c1ccnc(-c2cc(C(=O)NCCc3ccccc3)ccn2)c1`, the half-life worked out at 1.98 min. Next, `Cc1ccc(-c2cc(C(=O)NCc3ccc(S(N)(=O)=O)cc3)c3ccccc3n2)cc1C`: 17 min; `CCOC(=O)c1ccc(-c2ccc3ncnc(NCCc4cnc[nH]4)c3c2)o1`: more than 30 min.

The molecule `CCCCCCCC/C=C\CCCCCCCC(=O)NCCO` had a half-life of 2.33 min. In the case of `O=[S+]([O-])(Nc1cnc2ccccc2c1)c1ccc(NCc2ccc(Cl)cc2O)cc1`, the half-life turned out to be 18 min. Molecule `COc1ccc(-c2ccc3ncc(Nc4ccc(C(N)=O)cc4)n3n2)cc1OC` registered a half-life of more than 30 min. For the molecule `CC(=O)c1c(C)[nH]c(C(=O)Nc2cccc([S+](=O)([O-])Nc3c(C)cccc3C)c2)c1C`, the half-life was 5 min. Regarding `O=S(=O)(Nc1ccc2ccccc2c1)c1ccc(NCc2cccc(Cl)c2O)cc1`, the half-life amounted to 13 min. Next, `CC(C)(C)CC(C)(C)c1ccc(O)cc1`: 5.8 min; `Cc1cc(NS(=O)(=O)c2ccc(NC(=O)Cc3ccc(Cl)c(Cl)c3)cc2)no1`: 9.7 min; `COc1ccc(-c2ccc(Nc3nc(-c4ccncc4)nc4ccccc34)cc2F)cc1F`: 11 min. To `CC[C@H]1NC(=O)[C@@H](NC(=O)c2ncccc2O)[C@@H](C)OC(=O)[C@H](c2ccccc2)NC(=O)[C@@H]2CC(=O)CCN2C(=O)[C@H](Cc2ccccc2)N(C)C(=O)[C@@H]2CCCN2C1=O` belongs more than 30 min; to `COCCNc1ncc(-c2cccc(O)c2)c2c1OCC2`, 8.62 min; to `O=C(Nc1cc(Cc2ccccc2)ccn1)c1ccc(-c2cccc([N+](=O)[O-])c2)o1`, 4.8 min. Regarding `O=C1CCCC2=C1C(c1ccccc1Cl)N=C(Nc1nc3ccccc3o1)N2` (stereo not given), the half-life turned out to be 9.38 min. Regarding `COc1cccc(CNc2ccc(S(=O)(=O)Nc3nc(C)c(C)s3)cc2)c1O`, the half-life came out at 12 min.

The molecule `Cc1cccc(-n2ncc3c2CCCC3NC(=O)c2c(F)ccc(F)c2F)c1C` (stereo not given) returned a half-life of 0.96 min.

As for `CN(C)c1cccc(-c2ncnc(N3CCC(C(N)=O)CC3)n2)c1`, the half-life amounted to 5.7 min. To `CC(=O)OC[C@]12CCC(C)=C[C@H]1O[C@@H]1[C@H](O)[C@@H](OC(C)=O)[C@@]2(C)[C@]12CO2` belongs more than 30 min.

On to `Fc1cccc(-c2ccc(Nc3nc(-c4ccncc4)nc4ccccc34)cc2F)c1`, for which the half-life was more than 30 min. Molecule `O=C1CCCC2=C1C(c1[nH]ncc1Cl)N=C(Nc1nc3ccc(Cl)cc3o1)N2` (stereo not given) had a half-life of 10 min. To `O=C(Cc1ccc(-c2csc(Nc3ccc(F)cc3)n2)s1)N1CCOCC1` belongs more than 30 min; to `COC(=O)CNC(=O)c1nc(-c2ccc(Cl)nc2)c2ccccn12`, 4.72 min. As for `CCCc1cc(=O)oc2c3c(c4c(c12)OC(C)(C)C=C4)OC(C)C(C)C3O` (stereo not given), the half-life came out at 13.2 min. In turn, `NC(=O)C1CCN(c2ncc(-c3ccc(Cl)cc3)s2)CC1` gave a half-life of 5.97 min. As to `C[S+](=O)([O-])c1ccc(-c2nc(C(=O)N3CCOCC3)n3ccccc23)cc1`, the half-life is more than 30 min. The molecule `Cc1ccc(C(=O)Nc2cccc(C(F)(F)F)c2)cc1Nc1nc(-c2cccnc2)nc2c1cnn2C` came in with a half-life of more than 30 min. `CC(C)CC(C)NC(=O)c1noc(-c2ccc[nH]c2=O)n1` (stereo not given) returned a half-life of more than 30 min. For `O=C1Nc2c(Cl)cccc2/C1=C\c1cc(Cl)c(O)c(Cl)c1`, the half-life is more than 30 min.

Molecule `CCN1C(=O)c2ccccc2[S@](=O)c2ccc(C(=O)NCc3ccc(F)cc3)cc21` displayed a half-life of 12 min. As to `CCOc1ccc(CCNC(=O)c2cc3ccccc3n2C)cc1OCC`, the half-life came to 1.38 min. `CN1Cc2c(cc(N3CCOCC3)nc2-c2ccccc2OC(F)(F)F)C1=O` showed a half-life of more than 30 min.

The molecule `CS(=O)(=O)CCNCc1ccc(-c2ccc3ncnc(Nc4ccc(OCc5cccc(F)c5)c(Cl)c4)c3c2)o1` came in with a half-life of 7.65 min. Next, `Cn1cc(-c2nc(Nc3ccc(F)c(F)c3)c3ccccc3n2)cn1`: 21 min; `CCOC(=O)C1CCN(C(=O)C2(NC(=O)Nc3ccccc3Cl)CCC2)CC1`: 1.7 min. `Clc1cccc(-c2ccc(-c3nnc(CCCc4ccc5cccnc5n4)o3)cc2)c1`: the half-life was 2.3 min. `CCCCN(CC)CCCNC(=O)c1ccc2c(c1)N(Cc1ccc(C)cc1)C(=O)c1ccccc1S2` had a half-life of 4.06 min.
